Experimental data from patent US8653285B2 (Nippon Zoki Pharmaceutical Co., Ltd., priority 2008, dated 2014).
pIC50: −log10 of the molar value. Read-outs that look alike come from different tables or passages of the source.

What was measured:
[1] = target: human histamine H1 receptor (Homo sapiens, UniProt P35367); experiment: In vitro human histamine H1 receptor binding experiment ([3H]pyrilamine, HEK293A cells stably expressing the receptor); conditions: [3H]pyrilamine 3 nmol/L, room temperature 60 minutes
Sequence of human histamine H1 receptor (P35367 whole entry): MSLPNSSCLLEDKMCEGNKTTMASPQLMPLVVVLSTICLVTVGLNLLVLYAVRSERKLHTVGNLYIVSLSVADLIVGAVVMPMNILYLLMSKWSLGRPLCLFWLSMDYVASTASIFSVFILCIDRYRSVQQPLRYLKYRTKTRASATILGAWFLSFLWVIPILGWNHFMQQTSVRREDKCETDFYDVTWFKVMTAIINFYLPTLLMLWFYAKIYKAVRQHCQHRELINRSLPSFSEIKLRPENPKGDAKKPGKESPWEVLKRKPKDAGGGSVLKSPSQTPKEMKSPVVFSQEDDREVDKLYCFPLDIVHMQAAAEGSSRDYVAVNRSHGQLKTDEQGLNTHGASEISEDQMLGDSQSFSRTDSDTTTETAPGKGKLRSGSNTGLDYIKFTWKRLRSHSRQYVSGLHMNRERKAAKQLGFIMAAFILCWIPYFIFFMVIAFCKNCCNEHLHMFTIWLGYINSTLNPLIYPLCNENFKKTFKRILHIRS
Protocol: Recombinant human histamine H1 receptor plasmid (prepared by Invitrogen) was transfected to HEK293A cells with Lipofectamine 2000 (Invitrogen). Cells stably expressing human histamine H1 receptor were screened with Geneticin (Invitrogen). The cells were continued to be cultured using a Dulbecco's Modified Eagle Medium containing 10% fetal bovine serum, 0.1 mmol/L MEM Non-Essential Amino Acids Solution, 2 mmol/L L-glutamine and 0.7 mg/mL Geneticin in a 5% CO2 incubator at 37° C. The cells stably expressing human histamine H1 receptor were prepared using 50 mmol/L Tris-HCl (pH 7.5) (hereinafter referred to as buffer) containing 0.1% bovine serum albumin, so as to have a concentration of 3×10^6 cells/mL, to give a cell sample preparation. Fifty microliters of the buffer, 50 μL of a test substance solution at various concentrations, and 50 μL of [^3H]pyrilamine solution (final concentration: 3 nmol/L) were added to each of the wells on the 96-well plate, and stirred, and 100 μL of the cell sample preparation was then added thereto (at a concentration of 3×10^5 cells/well) to initiate the reaction.
The cells were incubated at room temperature for 60 minutes, and then filtered on UniFilter GF/C plate (Packard) immersed in 0.5% polyethyleneimine using a cell harvester (IH-110, INNOTECH CORPORATION), to stop the reaction, and the plate was washed with the buffer. The plate after washing was sufficiently dried, and 20 μL of a scintillator (MaxiLight, manufactured by Hidex) was added thereto, and count per minute (cpm) was measured with a multi-labeled microplate reader (Plate Chameleo II, Hidex). The nonspecific binding was cpm in a case where 30 μmol/L pyrilamine was added. The experiments were carried out at n=3, and at least repeated 3 times.

[2] = tested on: histamine-induced vascular hyperpermeability; experiment: Rat histamine-induced vascular hyperpermeability reaction (in vivo antihistamine action); conditions: SD male rat, oral administration, histamine injected intracutaneously 1 hour after administration, leaked Evans Blue; read-out: ED50
Protocol: An SD male rat (SPF) of 180 g in weight was previously fed for one week or more by allowing the rat to take a solid feed and tap water ad libitum, under the environment setting of a temperature of 22° C., humidity of 55% and an artificial illumination of 12 hours a day (light phase 8 am to 8 pm), and the rat was fasted overnight to be used for the experiment. Histamine.dihydrochloride (hereinafter referred to as histamine) and Evans Blue were used by dissolving each in physiological saline upon use. A substance to be tested was dissolved in water for injection or suspended in 0.5% carboxymethyl cellulose sodium, and the rat was orally administered with the solution or suspension (dose volume: 5 mL/kg body weight). After 1 hour from the administration, the physiological saline and the histamine solution were each intracutaneously injected to two locations (20 μg/0.05 ml/location) each on a back part of the rat of which hair was sheared with an electric clipper while anesthetizing with an ether. A 0.5% Evans Blue-containing physiological saline was injected into the tail vein of the rat (1 mL/200 g body weight) immediately before the intracutaneous injection of the histamine.
After 30 minutes, the animal was decapitated, and exsanguinated, and the skin was removed to measure an amount of leaked pigment in the blue-stained portion. The measurement of the amount of leaked pigment was carried out as follows. Skins of the pigment leaking site were cut out at two locations, 1 mL of a 2 mol/L aqueous potassium hydroxide solution was added thereto in a test tube, and the test tube was allowed to stand overnight at 37° C. to dissolve. Thereafter, 6 mL of a 1:3 mixed solution of 0.67 mol/L phosphoric acid and acetone was added to the solution, and the mixture was vigorously shaken for 10 minutes. Thereafter, the mixture was filtered, and the absorbance of the filtrate at 620 nm was measured. The absorbance obtained from the two locations of the sites injected with physiological saline, as blank value, was used for a compensation. The amount of leaked pigment was calculated from the calibration curve of Evans Blue at 620 nm.

cerebral H1 receptor = target: T1, cerebral H1 receptor (Mus musculus, UniProt P70174); experiment: Murine cerebral H1 receptor occupying content (ex vivo, 3H-pyrilamine binding in brain homogenate after oral administration)
T1 construct: The excised brain tissue was homogenized with Polytron (Kinematica); from tissue; host or cells: ICR mouse brain (entire brain except cerebellum and medulla oblongata), homogenate
T1 sequence (P70174 whole entry): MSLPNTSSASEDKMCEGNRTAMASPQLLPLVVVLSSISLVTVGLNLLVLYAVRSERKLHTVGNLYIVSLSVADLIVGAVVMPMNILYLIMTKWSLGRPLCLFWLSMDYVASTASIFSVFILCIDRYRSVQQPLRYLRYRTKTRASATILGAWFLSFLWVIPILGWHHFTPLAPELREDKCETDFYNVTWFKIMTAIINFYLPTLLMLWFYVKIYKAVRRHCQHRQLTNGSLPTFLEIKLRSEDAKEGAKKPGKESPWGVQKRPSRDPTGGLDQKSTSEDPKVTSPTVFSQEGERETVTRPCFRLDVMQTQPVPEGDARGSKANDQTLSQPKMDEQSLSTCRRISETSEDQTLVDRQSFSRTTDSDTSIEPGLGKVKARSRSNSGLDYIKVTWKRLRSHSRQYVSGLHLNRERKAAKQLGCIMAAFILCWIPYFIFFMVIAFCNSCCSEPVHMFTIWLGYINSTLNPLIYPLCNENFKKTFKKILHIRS
Protocol: A 6-week-old ICR male mouse was previously fed for one week or more by allowing the mouse to take a solid feed and tap water ad libitum, under the environment setting of a temperature of 22° C., humidity of 55% and an artificial illumination of 12 hours a day, and the mouse was fasted overnight to be used for the experiment. A substance to be tested was dissolved with water for injection or suspended in 0.5% carboxymethyl cellulose solution, and the solution or suspension was orally administered to the mouse (dose volume: 0.1 mL/10 g body weight). After 1 hour from the oral administration, the mouse was decapitated, and the entire brain, except for cerebellum and medulla oblongatae, was rapidly excised. The excised brain tissue was homogenized with Polytron (Kinematica) in an ice-cooled 50 mmol/L phosphate buffered saline (pH 7.4, 100 mg/1.9 mL).
To a test tube for reaction (TPX-Tube) were added 180 μL of the brain homogenate, and 10 μL of ^3H-pyrilamine solution (final concentration: 2 nmol/L) and 10 μL of a non-labeled pyrilamine solution (final concentration: 200 μmol/L) or a 50 mmol/L phosphate buffered saline, and the mixture was incubated at room temperature for 45 minutes, and 2.0 mL of an ice-cooled, 50 mmol/L phosphate buffered saline was then added thereto to stop the reaction. The reaction mixture was filtered with a GF/B filter ([…]), and the filtrate was placed in a vial and dried overnight at 60 degrees. After drying, 10 mL of a scintillator (AL-1, toluene-based, DOJINDO LABORATORIES) was added to the product, and the disintegration per minute (dpm) was measured with a liquid scintillation counter (Packard, U.S.A., TRI-CARB 2700TR) (5 minutes/vial).

| Structure (SMILES) | pIC50 [1] | ED50 [2] [mg/kg] | ED50 (cerebral H1 receptor; ICR male mouse, oral administration, brain excised after 1 hour, larger ID50 = lower brain transfer, read-out: ID50 (the source's name)) [mg/kg] | ED50 (cerebral H1 receptor; mouse, po, 1 h, read-out: ID50) [mg/kg] |
| --- | --- | --- | --- | --- |
| O=C(O)CCc1ccc2c(c1)/C(=C/CCN1CCCC1)c1ccsc1CO2 [Compound 59, (Z)-3-{4-[3-(Pyrrolidin-1-yl)propylidene]-4,10-dihydro-9-oxa-1-thiabenzo[f]azulen-6-yl}propionic acid] | 7.44 | ~0.3 | > 200 | – |
| Cl.O=C(O)Cc1ccc2c(c1)/C(=C\CCN1CCCC1)c1sccc1CO2 [Compound 70, (E)-{4-[3-(Pyrrolidin-1-yl)propylidene]-4,10-dihydro-9-oxa-3-thiabenzo[f]azulen-6-yl}acetic acid hydrochloride] | 7.84 | 0.42 | – | 51.4 |
| Cl.O=C(O)Cc1ccc2c(c1)/C(=C/CCN1CCCC1)c1sccc1CO2 [Compound 71, (Z)-{4-[3-(Pyrrolidin-1-yl)propylidene]-4,10-dihydro-9-oxa-3-thiabenzo[f]azulen-6-yl}acetic acid hydrochloride] | 7.20 | 0.83 | – | > 80 |
